Patent US7973062B2, “Androgen receptor-ablative agents” (The Ohio State University Research Foundation, priority 2008, dated 2011)

Key:
Type in all cases: cell-based
[1] = tested on: PARP cleavage, caspase 3 and caspase 7 activation; assay: Western blot of apoptosis-related biomarkers in LNCaP cells; settings: 72 h
[2] = tested on: AR promoter; assay: AR promoter-luciferase reporter assay in transiently transfected LNCaP cells; settings: compounds at 10 μM, 48 h, ciglitazone and Δ2CG at 20 μM
Source text: (§1) Transfection and Luciferase assay. The 3.6-kilobase AR promoter-linked reporter plasmid p-3600ARCAT was kindly provided by Dr. Chawnshang Chang (University of Rochester Medical Center, Rochester, N.Y.). The AR promoter gene (−3600 to +550) encompassing the transcription start site was isolated by using PCR to generate hAR-luc with suitable primers. The fragment was subcloned into the pGL3 luciferase reporter vector (Promega, Madison, Wis.) at KpnI and BglII in the multiple cloning site. The PPRE-x3-TK-Luc reporter vector contains three copies of the PPAR-response element (PPRE) upstream of the thymidine kinase promoter-luciferase fusion gene and was kindly provided by Dr. Bruce Spiegelman (Harvard University, Cambridge, Mass.). The pCMVSp1 plasmid was purchased from Origene Technologies, Inc. (Rockville, Md.). LNCaP or PC3 cells were transfected with 5 μg of individual plasmids in an Amaxa Nucleofector using a cell line-specific nucleofector kit according to the manufacturer's protocol (Amaxa Biosystems, Cologne, Germany), and then seeded in 6-well plates at 5×10^5 cells per well for 48 h. The transfection efficiency was determined to be 70-80% by transfecting cells with 2 μg of pmaxGFP plasmid, followed by fluorescence microscopy to measure GFP expression. For each transfection, herpes simplex virus thymidine kinase promoter-driven Renilla reniformis luciferase was used as an internal control for normalization.
For the reporter gene assay, after transfection, cells were cultured in 24-well plates in 10% FBS-supplemented RPMI 1640 medium for 48 h, subject to different treatments for the indicated times, collected, and lysed with passive lysis buffer (Promega). Fifty-μl aliquots of the lysates were added to 96-well plates, and luciferase activity was monitored after adding 100 μl of luciferase substrate (Promega) each well by using a MicroLumatPlus LB96V luminometer (Berthold Technologies, Oak Ridge, Tenn.) with the WinGlow software package. All transfection experiments were carried out in six replicate.

[3] = biological target: T1, PPARγ (Homo sapiens, UniProt P37231); assay: PPRE-luciferase reporter assay (PPRE-x3-TK-Luc) in PC-3 cells; settings: PC-3 cells transfected with PPRE-x3-TK-Luc
T1 construct: In PC-3 cells transfected with a reporter construct (PPRE-x3-TK-Luc); endogenous in cells; host or cells: PC-3
T1 sequence (P37231 1-505): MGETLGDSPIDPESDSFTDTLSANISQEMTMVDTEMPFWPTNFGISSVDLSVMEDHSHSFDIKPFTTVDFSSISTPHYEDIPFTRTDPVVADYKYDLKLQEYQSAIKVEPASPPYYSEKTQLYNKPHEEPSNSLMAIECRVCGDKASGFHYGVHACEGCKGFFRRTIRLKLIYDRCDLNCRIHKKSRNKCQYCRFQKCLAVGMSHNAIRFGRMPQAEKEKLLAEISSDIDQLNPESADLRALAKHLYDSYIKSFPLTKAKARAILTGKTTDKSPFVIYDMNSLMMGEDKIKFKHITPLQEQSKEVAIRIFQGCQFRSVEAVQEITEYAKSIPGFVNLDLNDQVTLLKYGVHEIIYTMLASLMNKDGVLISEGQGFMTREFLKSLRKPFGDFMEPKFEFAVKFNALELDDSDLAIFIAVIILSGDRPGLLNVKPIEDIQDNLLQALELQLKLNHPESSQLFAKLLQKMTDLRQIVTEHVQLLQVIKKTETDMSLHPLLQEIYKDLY
Source text: as §1, with “The transfection efficiency was determined to be 70-80% by transfecting cells with 2 μg of pmaxGFP plasmid, followed by fluorescence microscopy to measure GFP expression.” left out
Fifty-μl aliquots of the lysates were added to 96-well plates, and luciferase activity was monitored after adding 100 μl of luciferase substrate (Promega) each well by using a MicroLumatPlus LB96V luminometer (Berthold Technologies, Oak Ridge, Tenn.) with the WinGlow software package. All transfection experiments were carried out in six replicate.

[4] = tested on: androgen receptor (AR) expression; assay: Western blot analysis of AR protein expression in LNCaP cells; settings: for suppression of AR protein expression (in words): 72 h, Western blot
Method: RT-PCR and Immunoblotting. LNCaP cells were cultured in T25 flasks at an initial density of 1×10^6 cells/flask. After exposure to various compounds at the indicated conditions, cells were subject to total RNA isolation by using an RNeasy mini-kit (QIAGEN, Valencia, Calif.). RNA concentrations were determined by measuring absorption at 260 nm in a spectrophotometer. Aliquots of 6 μg of total RNA from each sample were reverse-transcribed to cDNA using an Omniscript RT Kit (QIAGEN) according to the manufacturer's instructions, using suitable primers.
For immunoblotting, protein extracts were prepared by M-PER Mammalian Protein Extraction Reagent (Pierce, Rockford, Ill.) with freshly added 1% phosphatase and protease inhibitor cocktails (Calbiochem) followed by centrifugation at 13,000×g for 10 min. Supernatant was collected and protein concentration was determined by protein assay reagent (Bio-Rad, CA). Protein extracts were then suspended in 2×SDS sample buffer, and subject to 10% SDS-polyacrylamide gels. After electrophoresis, proteins were transferred to nitrocellulose membranes using a semidry transfer cell. The transblotted membrane was washed twice with Tris-buffered saline containing 0.1% Tween 20 (TBST). After blocking with TBST containing 5% nonfat milk for 1 h, the membrane was incubated with mouse monoclonal anti-AR (Santa Cruz) or anti-β-actin (MP Biomedicals) antibodies (diluted 1:1000) in 1% TBST nonfat milk at 4° C. overnight. After incubation with the primary antibody, the membrane was washed three times with TBST for a total of 30 min, followed by incubation with horseradish peroxidase conjugated goat anti-mouse IgG (diluted 1:2500) for 1 h at room temperature. After three thorough washes with TBST for a total of 30 min, the immunoblots were visualized by enhanced chemiluminescence.

[5] = tested on: LNCaP androgen-responsive prostate cancer cells; assay: MTT cell viability assay, LNCaP cells; settings: 48 h
Method: Cell Counting and Cell Viability Assay. LNCaP or PC-3 cells were placed in six-well plates (2.5×10^5 cells/well) in 10% FBS-supplemented RPMI 1640 for 24 h, and treated with various concentrations of compound 12 for additional 24, 48 and 72 h. Cells were then trypsinized and counted by using a Coulter counter (Model Z1 D/T, Beckman Coulter, Fullerton, Calif.). Cell viability was assessed by using the 3-(4,5-dimethylthiazol-2-yl)-2,5-diphenyl-2H-tetrazolium bromide (MTT) assay in six replicates in 96-well plates. LNCaP or PC-3 cells were seeded at 6000 cells per well in 10% FBS-supplemented RPMI 1640 for 24 h, followed by treatments with various compounds in 5% FBS-supplemented RPMI 1640 at the indicated concentrations. Controls received DMSO at a concentration equal to that in drug-treated cells. After the end of incubation, MTT (0.5 mg/ml) in 10% FBS-supplemented RPMI 1640 was added to each well, and cells were incubated at 37° C. for 2 hours. Medium was removed and the reduced MTT dye was solubilized in DMSO (200 μl/well). Absorbance was determined at 570 nm by a 96-well plate reader.

| SMILES | suppression of AR promoter-luciferase activity / AR transcription (in words) [2] | inhibition of LNCaP cell viability (in words) [5] | suppression of AR protein expression (in words) ([4]; 10% FBS) | further results |
| --- | --- | --- | --- | --- |
| CC1(CN2C(=O)S/C(=C\c3cc(Br)c(O)c(Br)c3)C2=O)CCCCC1 [Compound 16, 5-(3,5-Dibromo-4-hydroxy-benzylidene)-3-(1-methyl-cyclohexylmethyl)-thiazolidine-2,4-dione] | optimal agents | optimal agents | – | apoptosis-related biomarkers: PARP cleavage, proteolytic activation of caspase 3 and caspase 7 [1]: dose-dependent effects; PPARγ activation (in words) [3]: lacked appreciable activity; IC50 ([4]; 72-h exposure, Western blot (FIG. 4C), read-out: IC50 for suppressing AR expression): ~4 µM |
| CC1(COc2ccc(C=C3SC(=O)NC3=O)cc2)CCCCC1 [Δ2CG, reference compound] | – | – | modestly higher potency than ciglitazone | PPARγ activation (in words) [3]: lacked appreciable activity; concentration required for complete suppression of AR protein expression ([4]; 10% FBS, Western blot (FIG. 2A)): approximately 30 μM |
| CCOc1cc(/C=C2\SC(=O)NC2=O)ccc1OCC1(C)CCCCC1 [Compound 6, 5-[3-Ethoxy-4-(1-methyl-cyclohexylmethoxy)-benzylidene]-thiazolidine-2,4-dione] | – | – | dose-dependent effect on suppressing AR protein expression | – |
| CC1(CN2C(=O)S/C(=C\c3ccc(O)cc3)C2=O)CCCCC1 [Compound 9, 5-(4-Hydroxy-benzylidene)-3-(1-methyl-cyclohexylmethyl)-thiazolidine-2,4-dione] | enhanced AR-ablating activity | – | dose-dependent effect on suppressing AR protein expression | – |
| CC1(CN2C(=O)SC(Cc3ccc(O)c(C(F)(F)F)c3)C2=O)CCCCC1 (stereo not shown) [Compound 20, 5-(4-Hydroxy-3-trifluoromethyl-benzyl)-3-(1-methyl-cyclohexylmethyl)-thiazolidine-2,4-dione] | – | retained the ability to suppress AR expression and cell viability, though with slightly lower potency | retained the ability to suppress AR expression and cell viability, though with slightly lower potency | – |
| CC1(COc2cccc(/C=C3\SC(=O)NC3=O)c2)CCCCC1 [Compound 1, 5-[3-(1-Methyl-cyclohexylmethoxy)-benzylidene]-thiazolidine-2,4-dione] | enhanced AR-ablating activity | – | dose-dependent effect on suppressing AR protein expression | – |
| CC1(CN2C(=O)S/C(=C\c3cccc(O)c3)C2=O)CCCCC1 [Compound 11, 5-(3-Hydroxy-benzylidene)-3-(1-methyl-cyclohexylmethyl)-thiazolidine-2,4-dione] | abolished the ability to suppress | abolished the ability to suppress | – | – |
| CC1(CN2C(=O)S/C(=C\c3ccccc3O)C2=O)CCCCC1 [Compound 10, 5-(2-Hydroxy-benzylidene)-3-(1-methyl-cyclohexylmethyl)-thiazolidine-2,4-dione] | abolished the ability to suppress | abolished the ability to suppress | – | – |
